Data published in patent publication EP4635954A1, “INDUCER FOR INDUCING MESENCHYMAL-EPITHELIAL TRANSITION AND REPROGRAMMING” (Iregene Therapeutics Co., Ltd, priority 2022, dated 2024).

Molecular target: miR-145
Experiment: Isothermal titration calorimetry (ITC), Nano-ITC
Format: binding
Settings: Multiple Sites model, 50 µM miR-145 in cell, 500 µM ligand in syringe
Source text: Isothermal titration calorimetry (ITC) operates based on the principle of power compensation and allows accurate determination of the enthalpy change associated with molecular interactions across a broad concentration range using a single titration experiment. It measures the heat change upon binding and provides a complete thermodynamic profile of nucleic acid-ligand interactions. Quantitative thermodynamic characterization of the complex is essential for understanding the molecular basis of the interaction between the microRNA miR-145 and the small molecule compound. In this invention, the Nano-ITC calorimeter from Waters Corporation was used to validate in vitro the interaction between nucleic acid and small molecule compounds. The experimental procedure involved placing 300 µL of singlestranded miR-145 solution at a concentration of 50 µM into a temperature-controlled sample cell, which was thermally coupled via a thermocouple circuit to a reference cell containing an equal volume of deionized water. As an example, the small molecule A-3-6 was prepared at a concentration of 500 µM and a volume of 50 µL, and loaded into the injection syringe as the ligand. The heat change in the sample cell was measured and balanced against the reference cell, appearing as either endothermic or exothermic peaks. […]

O=C(Cc1ccccc1)Nc1cc2cc[nH]c2cn1 [Compound A-3-6, 2-Phenyl-N-(1H-pyrrolo[2,3-c]pyridin-5-yl)acetamide]
Kd (site with nSite 1.8): 7.54 nM | Kd (site with nSite 3): 70.2 nM
